Source: US20240166651A1, “HETEROCYCLIC DERIVATIVES AS JANUS KINASE INHIBITORS” (CHIESI FARMACEUTICI S.P.A., priority 2021, published 2024)
pIC50: −log10 of the molar value.

Tests used:
JAK1 kinase = JAK1 kinase (Homo sapiens (Human), UniProt P23458); assay: Biochemical Potency JAK1 (TR-FRET LANCE Ultra kinase assay); details: ATP corresponding to Km
From the text: The objective of this study was to assess the activity of novel JAK inhibitors measuring the capability of compounds to inhibit JAK1 kinase activity in a biochemical time-resolved fluorescence resonance energy transfer (TR-FRET) LANCE assay. In
LANCE Ultra kinase assay in the presence of JAK1 kinase and ATP (corresponding to Km), the ULight peptide substrate (LANCE Ulight-JAK-1 (Tyr1023) Peptide, Perkin Elmer, TRF0121) was phosphorylated. It was then captured by a Eu-anti-phospho-substrate antibody (LANCE Eu-W1024 Anti-phosphotyrosine (PT66), Perkin Elmer, AD0069), which brought the Eu-chelate donor and ULight acceptor dyes into close proximity. Upon excitation at 320 nm, the Eu-chelate transfers its energy to the ULight dye, resulting in a fluorescent light emission at 665 nm. Inhibitors were tested at 11 consecutive 5-fold dilutions starting from 30 μM (30 μM—3 pM) in duplicate. Calculation of IC50 data, curves and QC analysis were made using Excel tools and GraphPadPrism software. QC criteria parameters: Z′≥0.5, Hill Slope range 0.5 to 5, S:B>2.

[1] = system: IL-2 induced phosphorylation of STAT5 (JAK1/JAK3 activity) in human PBMCs; assay: Cell Based assay PBMC (IL-2 stimulated pSTAT5); details: 0.5 h, rh IL-2, 30 min incubation, pSTAT5 ELISA, data displayed as pIC50
Method: In addition to enzymatic potency, the effects of the inhibitors against JAK1/JAK3 activity in a cellular assay was characterized against IL-2 induced phosphorylation of STATS level in human peripheral blood mononuclear cells (PBMCs).
PBMC have been isolated from human healthy volunteers. Cells were seeded in wells and treated with compounds and rh IL-2. After 30 min incubation cells were lysed and pSTAT5 determined by PathScan phospho-stats (Tyr694) ELISA (Cell signaling). Inhibitors were tested at 11 consecutive 5-fold dilutions starting from 30 μM (30 μM—3 pM) in duplicate. Calculation of IC50 data, curves and QC analysis were made using
Excel tools and GraphPadPrism software. QC criteria parameters: Z′≥0.35, Hill Slope range 0.5 to 5, S:B >2.

Sequence of JAK1 kinase (P23458 whole entry): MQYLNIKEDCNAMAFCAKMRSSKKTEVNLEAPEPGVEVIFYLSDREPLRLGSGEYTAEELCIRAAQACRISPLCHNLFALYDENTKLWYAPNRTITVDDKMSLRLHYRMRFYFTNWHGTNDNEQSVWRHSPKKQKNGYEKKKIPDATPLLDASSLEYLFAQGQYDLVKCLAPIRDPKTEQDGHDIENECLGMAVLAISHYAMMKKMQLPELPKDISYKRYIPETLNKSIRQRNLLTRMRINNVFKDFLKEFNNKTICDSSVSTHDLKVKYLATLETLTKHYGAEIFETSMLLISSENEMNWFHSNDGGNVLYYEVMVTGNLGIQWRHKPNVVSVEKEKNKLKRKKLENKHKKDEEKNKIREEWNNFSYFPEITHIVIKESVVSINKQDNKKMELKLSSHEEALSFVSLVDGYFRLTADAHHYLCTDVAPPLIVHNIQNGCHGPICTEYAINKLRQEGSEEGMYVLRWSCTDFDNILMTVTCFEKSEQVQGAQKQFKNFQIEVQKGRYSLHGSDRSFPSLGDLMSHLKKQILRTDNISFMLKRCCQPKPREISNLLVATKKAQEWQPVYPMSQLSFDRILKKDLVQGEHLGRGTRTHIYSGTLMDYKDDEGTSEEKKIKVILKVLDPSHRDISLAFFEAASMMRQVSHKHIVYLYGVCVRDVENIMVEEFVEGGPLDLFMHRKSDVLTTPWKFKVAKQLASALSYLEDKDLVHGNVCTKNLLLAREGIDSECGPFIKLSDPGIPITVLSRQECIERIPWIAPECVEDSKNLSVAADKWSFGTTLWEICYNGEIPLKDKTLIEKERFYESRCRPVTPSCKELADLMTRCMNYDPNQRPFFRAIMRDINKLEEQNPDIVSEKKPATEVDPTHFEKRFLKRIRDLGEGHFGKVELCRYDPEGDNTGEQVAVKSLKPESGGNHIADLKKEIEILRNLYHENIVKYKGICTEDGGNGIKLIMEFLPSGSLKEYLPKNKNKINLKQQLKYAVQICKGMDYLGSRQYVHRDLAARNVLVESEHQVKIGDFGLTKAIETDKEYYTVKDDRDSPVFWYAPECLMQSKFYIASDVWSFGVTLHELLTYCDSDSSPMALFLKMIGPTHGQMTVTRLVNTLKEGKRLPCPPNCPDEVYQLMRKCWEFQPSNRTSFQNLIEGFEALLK

| SMILES | Biochemical Potency JAK 1 (pIC50) (JAK1 kinase) | pIC50 [1] |
| --- | --- | --- |
| CN(c1ncnc2[nH]ccc12)[C@@H]1CCN(c2ccc(C#N)c(F)c2)C1 [Example 1, (R)-2-fluoro-4-(3-(methyl(7H-pyrrolo[2,3-d]pyrimidin-4-yl)amino)pyrrolidin-1-yl)benzonitrile] | 8.6 | 7.30 |
| CN(c1ncnc2[nH]ccc12)C1CCN(c2ccc(C#N)nc2)C1 (stereo not drawn) [Example 2, 5-(3-(methyl(7H-pyrrolo[2,3-d]pyrimidin-4-yl)amino)pyrrolidin-1-yl)picolinonitrile] | 7.9 | 6.60 |
| CN(c1ncnc2[nH]ccc12)[C@@H]1CCN(c2ccc(C(=O)Nc3nccs3)cn2)C1 [Example 3, (R)-6-(3-(methyl(7H-pyrrolo[2,3-d]pyrimidin-4-yl)amino)pyrrolidin-1-yl)-N-(thiazol-2-yl)nicotinamide] | 7.7 | 6.30 |
| N#Cc1ccc(N2CCC(Nc3c(C(N)=O)cnc4ccsc34)C2)cc1F (stereo not drawn) [Example 4, 7-((1-(4-cyano-3-fluorophenyl)pyrrolidin-3-yl)amino)thieno[3,2-b]pyridine-6-carboxamide] | 7 | 5.50 |
| COC(=O)C(c1ccc(Cl)cc1F)N1CCC(N(C)c2ncnc3[nH]ccc23)C1 (stereo not drawn) [Example 5, methyl 2-(4-chloro-2-fluorophenyl)-2-(3-(methyl(7H-pyrrolo[2,3-d]pyrimidin-4-yl)amino)pyrrolidin-1-yl)acetate] | 7.6 |  |
| CN(c1ncnc2[nH]ccc12)C1CCN(C(C(=O)O)c2ccc(Cl)cc2F)C1 (stereo not drawn) [Example 6, 2-(4-chloro-2-fluorophenyl)-2-(3-(methyl(7H-pyrrolo[2,3-d]pyrimidin-4-yl)amino)pyrrolidin-1-yl)acetic acid] | 5.3 |  |
| CCOC(=O)c1cnc2ccsc2c1NC1CCN(c2ccc(C#N)c(F)c2)C1 (stereo not drawn) [Example 7, ethyl 7-((1-(4-cyano-3-fluorophenyl)pyrrolidin-3-yl)amino)thieno[3,2-b]pyridine-6-carboxylate] | 6 | 5.60 |
| N#Cc1ccc(N2CCC(Nc3c(C(=O)O)cnc4ccsc34)C2)cc1F (stereo not drawn) [Example 8, 7-((1-(4-cyano-3-fluorophenyl)pyrrolidin-3-yl)amino)thieno[3,2-b]pyridine-6-carboxylic acid] | 5.3 | 4.50 |
| CN(c1ncnc2[nH]ccc12)[C@@H]1CCN(c2cc(F)ccc2C#N)C1 [Example 9, (R)-4-fluoro-2-(3-(methyl(7H-pyrrolo[2,3-d]pyrimidin-4-yl)amino)pyrrolidin-1-yl)benzonitrile] | 7.6 | 6.40 |
| CN(c1ncnc2[nH]ccc12)[C@@H]1CCN(c2cnc(C#N)nc2)C1 [Example 10, (R)-5-(3-(methyl(7H-pyrrolo[2,3-d]pyrimidin-4-yl)amino)pyrrolidin-1-yl)pyrimidine-2-carbonitrile] | 7.9 | 6.70 |
